Measurements published in PubChem BioAssay AID1845197 (Molecular Pharmacology Branch, DTP, NCI, 2023).

Test system: 349418-098-R tumor spheroid viability
Experiment: Anticancer human tumor 349418-098-R patient-derived lung adenocarcinoma cell line growth inhibition
Conditions: spheroids with HUVEC and MSC; for IC50: curve of first compound; for viability, T/C: stronger effect = lower value
Source text: Multicellular complex tumor spheroid response to DNA repair inhibitors in combination with DNA-damaging drugs
This study explores the anticancer activities of DNA-damaging drugs and inhibitors of DNA damage repair, both as single agents and in combinations. Complex tumor spheroids comprised of malignant cells, endothelial cells and mesenchymal stem cells served as an in vitro model for human solid tumors. This model system incorporates physiologically relevant features and patient-derived or established malignant cell lines with clinically relevant genetic alterations from many tumor types. Twenty-six patient-derived or established malignant cell lines were evaluated representing sarcoma, melanoma, small cell lung cancer (SCLC), non-small cell lung cancer (NSCLC), as well as bladder, ovarian and pancreatic cancers. The concentration ranges selected for each drug and investigational agent were based upon clinically achievable concentrations if the clinical Cmax of the agent was known.
Compounds. The drugs and compounds olaparib (NSC753686), talazoparib (NSC767125), berzosertib (NSC777718), elimusertib (NSC800525), nedisertib (NSC802822), VX-984 (NSC792969), AZD-1390 (NSC803789), temozolomide (NSC362856), topotecan (NSC609699), trabectedin (NSC813783), staurosporine (NSC755774), and gemcitabine (NSC613327) were obtained from the National Cancer Institute (NCI) Developmental Therapeutics Program Chemical Repository. The FDA-approved anticancer drug set is available from the Developmental Therapeutics Program at https://dtp.cancer.gov/organization/dscb/obtaining/available_plates.htm. […] The stock solutions were prepared in dimethyl sulfoxide (DMSO, Sigma-Aldrich, St. Louis, MO, cat. D2650) at 400-fold the tested concentration and stored at -70 degrees C. Prior to their use, the stock solutions were diluted in fresh medium and the final DMSO concentration in the assay was 0.25% (v/v). All drugs and investigational agents were tested over a range starting from a high concentration at or near the clinical Cmax and decreasing in half-log increments. If the clinical Cmax for an agent had not been determined, the highest concentration tested was 10 microM.
Cell Lines. The patient-derived cancer cell (PDC) lines: 156681-154-R-J1-PDC, 283228-195-R-J1-PDC, 287954-098-R-J1-PDC, 292921-168-R-J2-PDC, 349418-098-R-PDC, 425362-245-T-J1-PDC, 556581-035-R-J1-PDC, and BL0293-F563-PDC were received from the NCI Patient-Derived Models Repository (PDMR, https://pdmr.cancer.gov). The established cell lines HS-SY-2 (RRID:CVCL_8719), MPNST, and SYO-1 (RRID:CVCL_7146) were obtained from the Sloan Kettering Institute. The alveolar soft parts sarcoma cell line ASPS-1 (RRID:CVCL_S738) was established at the NCI and grown from internal seed stocks. The following established cell lines were purchased from the American Type Culture Collection (ATCC, Manassas, VA): G-401 (ATCC, cat. CRL-1441, RRID:CVCL_0270), SW982 (ATCC, cat. HTB-93, RRID:CVCL_1734), VA-ES-BJ (ATCC, cat. CRL-2138, RRID:CVCL_1785), NCI-H719 (ATCC, cat. CRL-5837, RRID:CVCL_1582), NCI-H196 (ATCC, cat. CRL-5823, RRID:CVCL_1509), NCI-H841 (ATCC, cat. CRL-5845, RRID:CVCL_1595), NCI-H1618 (ATCC, cat. CRL-5879, RRID:CVCL_1480), NCI-H1876 (ATCC, cat. CRL-5902, RRID:CVCL_1503), DMS 114 (ATCC, cat. CRL-2066; RRID:CVCL_1174), NCI-H211 (ATCC, cat. CRL-5824; RRID:CVCL_1529), and SW 1271 (ATCC, cat. CRL-2177, RRID:CVCL_1716). The small cell lung cancer cell line COR-L88 was purchased from Sigma-Aldrich (cat. 92031917-1VL, RRID:CVCL_1141). The non-small cell lung cancer cell lines NCI-H226 (RRID:CVCL_1544) and NCI-H322M (RRID:CVCL_1557) were established at the NCI and grown from internal seed stocks. Pooled donor human umbilical vein endothelial cells (HUVEC, Lonza, cat. CC-2519) and human mesenchymal stem cells (hMSC, Lonza, cat. PT-2501) were purchased from Lonza (Walkersville, MD).
Cell Culture. All cells were maintained in an incubator at 37 degrees C and 5% CO2 with 95% humidity. […]
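Note: spheroids exposed to compound for 7 days before measurement.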
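Throughout, for viability, T/C: percent of vehicle control viability with 100% = DMSO-treated spheroids.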

Question: With `Cn1ncnc1[C@H]1c2n[nH]c(=O)c3cc(F)cc(c23)N[C@@H]1c1ccc(F)cc1` + CC[C@@]1(O)C(=O)OCc2c1cc1n(c2=O)Cc2cc3c(CN(C)C)c(O)ccc3nc2-1 as the molecule, how does the IC50 (second compound 0.003 µM) read?
Answer: 1620 nM

Question: What about the IC50 (second compound 0.00949 µM) of the same molecule?
Answer: 1100 nM

Question: What about the IC50 (second compound 0.03 µM) of the same molecule?
Answer: 53.9 nM

Question: What about the IC50 (second compound 0.0949 µM) of the same molecule?
Answer: < 9.49 nM

Question: And the IC50 (second compound 0.3 µM)?
Answer: < 9.49 nM

Question: And the viability, T/C (second compound 0.003 µM, first compound 0.00949 µM)?
Answer: 93.6%

Question: What about the viability, T/C (second compound 0.003 µM, first compound 0.03 µM) of the same molecule?
Answer: 97.7%

Question: And the viability, T/C (second compound 0.003 µM, first compound 0.0949 µM)?
Answer: 91.4%

Question: And the viability, T/C (second compound 0.003 µM, first compound 0.3 µM)?
Answer: 96.6%

Question: And the viability, T/C (second compound 0.003 µM, first compound 0.949 µM)?
Answer: 83.3%

Question: And the viability, T/C (second compound 0.003 µM, first compound 3 µM)?
Answer: 11.1%

Question: What about the viability, T/C (second compound 0.00949 µM, first compound 0.00949 µM) of the same molecule?
Answer: 100%

Question: What about the viability, T/C (second compound 0.00949 µM, first compound 0.03 µM) of the same molecule?
Answer: 97.6%

Question: What about the viability, T/C (second compound 0.00949 µM, first compound 0.0949 µM) of the same molecule?
Answer: 90.8%

Question: What about the viability, T/C (second compound 0.00949 µM, first compound 0.3 µM) of the same molecule?
Answer: 92.6%

Question: And the viability, T/C (second compound 0.00949 µM, first compound 0.949 µM)?
Answer: 56.1%

Question: What about the viability, T/C (second compound 0.00949 µM, first compound 3 µM) of the same molecule?
Answer: 7.96%

Question: What about the viability, T/C (second compound 0.03 µM, first compound 0.00949 µM) of the same molecule?
Answer: 63.4%

Question: And the viability, T/C (second compound 0.03 µM, first compound 0.03 µM)?
Answer: 59.5%

Question: And the viability, T/C (second compound 0.03 µM, first compound 0.0949 µM)?
Answer: 41.3%

Question: What about the viability, T/C (second compound 0.03 µM, first compound 0.3 µM) of the same molecule?
Answer: 31.1%

Question: What about the viability, T/C (second compound 0.03 µM, first compound 0.949 µM) of the same molecule?
Answer: 18.3%

Question: And the viability, T/C (second compound 0.03 µM, first compound 3 µM)?
Answer: 2.95%

Question: What about the viability, T/C (second compound 0.0949 µM, first compound 0.00949 µM) of the same molecule?
Answer: 13.1%

Question: And the viability, T/C (second compound 0.0949 µM, first compound 0.03 µM)?
Answer: 9.39%

Question: What about the viability, T/C (second compound 0.0949 µM, first compound 0.0949 µM) of the same molecule?
Answer: 12.7%

Question: What about the viability, T/C (second compound 0.0949 µM, first compound 0.3 µM) of the same molecule?
Answer: 8.01%

Question: What about the viability, T/C (second compound 0.0949 µM, first compound 0.949 µM) of the same molecule?
Answer: 5.35%

Question: What about the viability, T/C (second compound 0.0949 µM, first compound 3 µM) of the same molecule?
Answer: 1.86%

Question: And the viability, T/C (second compound 0.3 µM, first compound 0.00949 µM)?
Answer: 3.53%

Question: What about the viability, T/C (second compound 0.3 µM, first compound 0.03 µM) of the same molecule?
Answer: 3.12%

Question: What about the viability, T/C (second compound 0.3 µM, first compound 0.0949 µM) of the same molecule?
Answer: 3.64%

Question: And the viability, T/C (second compound 0.3 µM, first compound 0.3 µM)?
Answer: 3.26%

Question: And the viability, T/C (second compound 0.3 µM, first compound 0.949 µM)?
Answer: 2.39%

Question: What about the viability, T/C (second compound 0.3 µM, first compound 3 µM) of the same molecule?
Answer: 1.17%

Question: Which IC50 (second compound 0.003 µM) does the source give for `COc1cc(C)[nH]c(=O)c1CN1CCc2c(Cl)cc(C(OC)C3COC3)c(Cl)c2C1=O` (stereo not given) + CC[C@@]1(O)C(=O)OCc2c1cc1n(c2=O)Cc2cc3c(CN(C)C)c(O)ccc3nc2-1 here?
Answer: > 10000 nM

Question: And the IC50 (second compound 0.00949 µM)?
Answer: > 10000 nM

Question: And the IC50 (second compound 0.03 µM)?
Answer: 5480 nM

Question: What about the IC50 (second compound 0.0949 µM) of the same molecule?
Answer: < 31.6 nM

Question: And the IC50 (second compound 0.3 µM)?
Answer: < 31.6 nM

Question: What about the viability, T/C (second compound 0.003 µM, first compound 0.0316 µM) of the same molecule?
Answer: 108%

Question: And the viability, T/C (second compound 0.003 µM, first compound 0.1 µM)?
Answer: 123%

Question: What about the viability, T/C (second compound 0.003 µM, first compound 0.316 µM) of the same molecule?
Answer: 104%

Question: What about the viability, T/C (second compound 0.003 µM, first compound 1 µM) of the same molecule?
Answer: 109%

Question: What about the viability, T/C (second compound 0.003 µM, first compound 3.16 µM) of the same molecule?
Answer: 109%

Question: And the viability, T/C (second compound 0.003 µM, first compound 10 µM)?
Answer: 114%

Question: And the viability, T/C (second compound 0.00949 µM, first compound 0.0316 µM)?
Answer: 104%

Question: What about the viability, T/C (second compound 0.00949 µM, first compound 0.1 µM) of the same molecule?
Answer: 121%

Question: And the viability, T/C (second compound 0.00949 µM, first compound 0.316 µM)?
Answer: 100%

Question: And the viability, T/C (second compound 0.00949 µM, first compound 1 µM)?
Answer: 113%

Question: And the viability, T/C (second compound 0.00949 µM, first compound 3.16 µM)?
Answer: 97.1%

Question: What about the viability, T/C (second compound 0.00949 µM, first compound 10 µM) of the same molecule?
Answer: 94.8%

Question: What about the viability, T/C (second compound 0.03 µM, first compound 0.0316 µM) of the same molecule?
Answer: 89.7%

Question: And the viability, T/C (second compound 0.03 µM, first compound 0.1 µM)?
Answer: 73.8%

Question: And the viability, T/C (second compound 0.03 µM, first compound 0.316 µM)?
Answer: 65.6%

Question: And the viability, T/C (second compound 0.03 µM, first compound 1 µM)?
Answer: 71.8%

Question: What about the viability, T/C (second compound 0.03 µM, first compound 3.16 µM) of the same molecule?
Answer: 60.1%

Question: What about the viability, T/C (second compound 0.03 µM, first compound 10 µM) of the same molecule?
Answer: 40.5%

Question: And the viability, T/C (second compound 0.0949 µM, first compound 0.0316 µM)?
Answer: 19.4%

Question: What about the viability, T/C (second compound 0.0949 µM, first compound 0.1 µM) of the same molecule?
Answer: 17.1%

Question: What about the viability, T/C (second compound 0.0949 µM, first compound 0.316 µM) of the same molecule?
Answer: 9.77%

Question: And the viability, T/C (second compound 0.0949 µM, first compound 1 µM)?
Answer: 16%

Question: And the viability, T/C (second compound 0.0949 µM, first compound 3.16 µM)?
Answer: 13.4%

Question: What about the viability, T/C (second compound 0.0949 µM, first compound 10 µM) of the same molecule?
Answer: 8.01%

Question: And the viability, T/C (second compound 0.3 µM, first compound 0.0316 µM)?
Answer: 5.42%

Question: And the viability, T/C (second compound 0.3 µM, first compound 0.1 µM)?
Answer: 4.95%

Question: What about the viability, T/C (second compound 0.3 µM, first compound 0.316 µM) of the same molecule?
Answer: 4.96%

Question: What about the viability, T/C (second compound 0.3 µM, first compound 1 µM) of the same molecule?
Answer: 3.5%

Question: What about the viability, T/C (second compound 0.3 µM, first compound 3.16 µM) of the same molecule?
Answer: 4.11%

Question: And the viability, T/C (second compound 0.3 µM, first compound 10 µM)?
Answer: 5.21%
